ChEMBL document CHEMBL5143650, “Synthesis and biological evaluation of new series of quinazoline derivatives as EGFR/HER2 dual-target inhibitors” (Bioorg Med Chem Lett, 2022)

How the values were obtained:
[1] = Inhibition of recombinant human N-terminal His-tagged EGFR (676 to 1255 residues) expressed in Sf21 insect cells at 200 uM using kinase substrate 22 incubated for 30 mins in presence of ATP relative to control
[2] = tested on: NCI-H358; assay: Antiproliferative activity against human NCI-H358 cells assessed as reduction in cell viability after 72 hrs by CCK-8 assay; type: functional
[3] = tested on: Calu-3; assay: Antiproliferative activity against human Calu-3 cells assessed as reduction in cell viability after 72 hrs by CCK-8 assay; type: functional
[4] = tested on: PC-9; assay: Antiproliferative activity against human PC-9 cells expressing EGFR E746/A750 deletion mutant assessed as reduction in cell viability after 72 hrs by CCK-8 assay; type: functional
[5] = Inhibition of recombinant human N-terminal His-tagged EGFR (676 to 1255 residues) expressed in Sf21 insect cells using kinase substrate 22 incubated for 30 mins in presence of ATP
[6] = Antiproliferative activity against human NCI-H1781 cells expressing HER G776V mutant assessed as reduction in cell viability after 72 hrs by CCK-8 assay; type: functional
[7] = biological target: Epidermal growth factor receptor (Homo sapiens, UniProt P00533); assay: Inhibition of recombinant human N-terminal GST-tagged EGFR (669 to 1210 residues) expressed in Sf21 insect cells using kinase substrate 22 incubated for 30 mins in presence of ATP
Chain of Epidermal growth factor receptor (P00533 whole entry, the tested form may be a part): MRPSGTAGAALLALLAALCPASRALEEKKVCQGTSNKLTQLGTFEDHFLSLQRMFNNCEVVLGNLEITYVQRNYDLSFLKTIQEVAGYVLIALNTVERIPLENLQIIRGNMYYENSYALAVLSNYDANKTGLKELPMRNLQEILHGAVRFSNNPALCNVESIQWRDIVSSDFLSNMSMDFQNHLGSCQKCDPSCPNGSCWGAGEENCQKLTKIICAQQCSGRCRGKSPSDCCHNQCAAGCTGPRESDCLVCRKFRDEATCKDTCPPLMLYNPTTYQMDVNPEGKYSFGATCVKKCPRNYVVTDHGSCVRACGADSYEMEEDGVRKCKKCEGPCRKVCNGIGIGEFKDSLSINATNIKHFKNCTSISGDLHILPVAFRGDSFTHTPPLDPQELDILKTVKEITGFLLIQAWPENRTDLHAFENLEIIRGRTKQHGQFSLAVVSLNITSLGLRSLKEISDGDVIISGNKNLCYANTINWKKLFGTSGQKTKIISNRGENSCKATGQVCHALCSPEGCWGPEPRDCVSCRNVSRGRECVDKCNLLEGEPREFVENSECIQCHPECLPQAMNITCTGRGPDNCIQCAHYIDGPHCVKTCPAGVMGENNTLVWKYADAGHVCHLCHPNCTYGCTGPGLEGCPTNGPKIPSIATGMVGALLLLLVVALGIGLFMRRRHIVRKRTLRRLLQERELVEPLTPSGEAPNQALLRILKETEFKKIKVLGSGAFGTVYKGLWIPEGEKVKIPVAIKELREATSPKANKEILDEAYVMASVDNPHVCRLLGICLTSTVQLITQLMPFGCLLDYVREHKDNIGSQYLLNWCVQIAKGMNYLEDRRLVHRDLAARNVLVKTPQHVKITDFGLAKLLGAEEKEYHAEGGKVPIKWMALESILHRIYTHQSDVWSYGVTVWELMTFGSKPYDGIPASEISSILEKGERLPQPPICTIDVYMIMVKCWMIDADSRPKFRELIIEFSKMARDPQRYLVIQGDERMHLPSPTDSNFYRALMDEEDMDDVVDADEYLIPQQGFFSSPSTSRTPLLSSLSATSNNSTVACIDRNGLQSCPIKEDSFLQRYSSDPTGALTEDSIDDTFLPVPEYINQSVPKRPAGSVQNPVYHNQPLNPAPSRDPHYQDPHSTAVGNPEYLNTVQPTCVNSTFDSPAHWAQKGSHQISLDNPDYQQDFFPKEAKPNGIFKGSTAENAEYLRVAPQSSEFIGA

Row | Structure (SMILES) | inhibition [1] [%] | GI50 [2] [µM] | GI50 [3] [µM] | GI50 [4] [µM] | IC50 [5] [µM] | GI50 [6] [µM] | IC50 [7] [µM]
1 | C=CC(=O)N1CCN(C(=O)Oc2cc3c(Nc4ccc(C#N)c(Cl)c4)ncnc3cc2OC)[C@H](C)C1 | 11.9 |  |  |  |  |  | 
2 | C=CC(=O)N1CCN(C(=O)Oc2cc3c(Nc4ccc(Cl)c(Cl)c4F)ncnc3cc2OC)[C@H](C)C1 | 48.9 |  |  |  |  |  | 
3 | C=CC(=O)N1CCN(C(=O)Oc2cc3c(Nc4ccc5ccccc5c4)ncnc3cc2OC)[C@H](C)C1 | 30.8 |  |  |  |  |  | 
4 | C=CC(=O)N1CCN(C(=O)Oc2cc3c(Nc4ccc(C#N)c(F)c4)ncnc3cc2OC)[C@H](C)C1 | 2.3 |  |  |  |  |  | 
5 | C=CC(=O)N1CCN(C(=O)Oc2cc3c(Nc4ccc(C#N)cc4)ncnc3cc2OC)[C@H](C)C1 | 4.4 |  |  |  |  |  | 
6 | CN(C)C/C=C/C(=O)Nc1cc2c(Nc3ccc(F)c(Cl)c3)ncnc2cc1O[C@H]1CCOC1 [AFATINIB] | 102 | 0.001 | 0.00277 | 0.00037 | 0.00169 | 0.00023 | 
7 | C=CC(=O)N1CCN(C(=O)Oc2cc3c(Nc4cccc(Cl)c4F)ncnc3cc2OC)[C@H](C)C1 | 53.4 | 0.464 | 0.264 | 0.00603 | 0.152 | > 2 | 0.00034
8 | C=C(C)C(=O)N1CCN(C(=O)Oc2cc3c(Nc4ccc(Cl)c(Cl)c4F)ncnc3cc2OC)[C@H](C)C1 | 43.6 |  |  |  |  |  | 
9 | C=CC(=O)N1CCN(C(=O)Oc2cc3c(Nc4ccc(F)c(C#N)c4)ncnc3cc2OC)[C@H](C)C1 | 13.9 |  |  |  |  |  | 
10 | C=CC(=O)Oc1cc2c(Nc3ccc(Cl)c(Cl)c3F)ncnc2cc1OC | 71.5 | 0.619 | 1.34 | 0.0923 | 0.0544 | > 2 | 0.00054
11 | C=CC(=O)N1C[C@@H]2C[C@H]1CN2C(=O)Oc1cc2c(Nc3ccc(Cl)c(Cl)c3F)ncnc2cc1OC | 95.8 | 0.0233 | 0.0231 | 0.00195 | 0.00607 | 0.0416 | 0.0003
12 | C=C(C(=O)N1CCN(C(=O)Oc2cc3c(Nc4ccc(Cl)c(Cl)c4F)ncnc3cc2OC)[C@H](C)C1)C(F)(F)F | 82.7 | 1.02 | 0.553 | 0.0908 | 0.0282 | > 2 | 0.00038
13 | C=CC(=O)N1CCN(C(=O)Oc2cc3c(Nc4cnc5ccccc5c4)ncnc3cc2OC)[C@H](C)C1 | 14.9 |  |  |  |  |  | 
14 | C=CC(=O)N1CCN(C(=O)Oc2cc3c(Nc4ccc5ncccc5c4)ncnc3cc2OC)[C@H](C)C1 | 2.6 |  |  |  |  |  | 
15 | C=CC(=O)N1CCC(Oc2cc3c(Nc4ccc(Cl)c(Cl)c4F)ncnc3cc2OC)CC1 [POZIOTINIB] | 97.1 | 0.00867 | 0.0101 | 0.0009 | 0.00388 | 0.00227 | 
16 | C=C(F)C(=O)N1CCN(C(=O)Oc2cc3c(Nc4ccc(Cl)c(Cl)c4F)ncnc3cc2OC)[C@H](C)C1 | 41.1 |  |  |  |  |  | 
17 | C#CC(=O)N1CCN(C(=O)Oc2cc3c(Nc4ccc(Cl)c(Cl)c4F)ncnc3cc2OC)[C@H](C)C1 | 94 | 0.671 | 0.718 | 0.299 | 0.0222 | > 2 | 0.00032
18 | C=C(F)C(=O)N1C[C@@H]2C[C@H]1CN2C(=O)Oc1cc2c(Nc3ccc(Cl)c(Cl)c3F)ncnc2cc1OC | 47.9 |  |  |  |  |  | 
19 | C=CC(=O)N1CCN(C(=O)Oc2cc3c(Nc4cc(C(C)(C)C)no4)ncnc3cc2OC)[C@H](C)C1 | 14.6 |  |  |  |  |  | 
20 | C=CC(=O)N1CCN(C(=O)Oc2cc3c(Nc4ccc5scnc5c4)ncnc3cc2OC)[C@H](C)C1 | 5.8 |  |  |  |  |  | 
21 | C=C(F)C(=O)N1CCN(C(=O)Oc2cc3c(Nc4cnc5ccccc5c4)ncnc3cc2OC)[C@H](C)C1 | 11.5 |  |  |  |  |  | 
